Patent publication US20190106460A1, “BINDING INHIBITORS OF THE BETA. TRANSDUCIN REPEAT-CONTAINING PROTEIN” (priority 2011, published 2019)
Non-standard residues stand in square brackets, D forms with d. Residues, ends and D or L forms follow the SMILES beside them. *: point of attachment. Benzenesulfonyl(4-OMe) = COc1ccc(S(=O)(=O)*)cc1; Phe(3-F) = N[C@@H](Cc1cccc(F)c1)C(=O)O; 2Naphthoyl = O=C(c1ccc2ccccc2c1)*; Brosyl = O=S(=O)(c1ccc(Br)cc1)*; Ethoxycarbonyl = CCOC(=O)*; Ahx = NCCCCCC(=O)O

Columns and labels:
PDCD4 in MCF7 cells = assay: In-cell western assay for PDCD4 accumulation; assay type: cell-based; conditions: general statement, different delivery vehicles
Description: In-Cell Western Assay for PDCD4 Accumulation.
To measure this an in-cell western assay was used and the peptidomimetics were delivered to the cells by nucleofection.
MCF7 cells were grown in 10 cm dishes in 10 ml DMEM+10% FBS and 1% Pen/Strep at 37° C./5% CO2. On the day of nucleofection, the dish was washed with 90% confluent MCF7 cells with 5 ml PBS, then 3 ml of Trypsin/EDTA was added and incubated at 37° C./5% CO2 for approximately 5 mins until the cells detached from the plastic. 7 ml of normal growth media was added and the number of cells present was counted using a haemocytometer.
The cells were centrifuged cells at 90 g for 10 mins at RT and the supernatant was removed. 100 μl of Nucleofection Buffer V+ Supplement was added (Lonza Biologics Cat no VCA-1003) per 8×10^5 cells, and the cells were added to peptidomimetics dissolved in <3% DMSO.
The cell/peptidomimetic mix was added to cuvettes supplied for the nucleofector and the sample was nucleofected using the recommended MCF7 programme for high cell viability (i.e. E-014). 500 μl of TPA (12-O-tetradecanoylphorbol-13-acetate)-supplemented growth media (i.e. DMEM/10% FBS/1% Pen-Strep/10 nM TPA) was added to the cuvette and 100 μl of this solution was transferred to a well of a 96 well plate and incubated at 37° C./5% CO2 for 8 hours.
The celled were fixed by removing the growth media, adding 3.7% Formaldehyde in PBS and incubating at RT for 20 mins. The plate was washed three times in PBS. And the cells were permeabilised by washing 5× for 5 mins each in PBS+0.1% Triton X-100.
The cells were blocked by adding 3% BSA in PBS-Tween to the cells and incubating at RT for 1.5 hours. An anti-PDCD4 antibody (Abcam cat no: ab80590) was added at a concentration of 1:1000 in 3% BSA in PBS-T (50 ul/well) and incubated at RT for 2.5 hours. The cells were washed 5× for 5 mins each with PBS-T before the secondary antibody (LiCor Biosciences Donkey Anti-Rabbit IRDye 800CW cat no 926-32213) was added at a concentration of 1:1000, along with the DNA stain DRAQ5 at a concentration of 1:10000, in 3% BSA in PBS-T (50 ul/well) and incubated at RT for 1 hour, protected from light.
The cells were washed cells 5× for 5 mins each with PBS-T and all the liquid was removed from the wells before the plate was read on the LiCor Biosciences Odyssey at 700 nm and 800 nm. The reading was normalised in the 800 nm channel to that in the 700 nm channel. The data are shown in FIG. 12, where DMSO was used as a negative control and 20 μM MG132 was used as a positive control. The data is presented as percentage activity with DMSO=0% and […]=100% activity. Error bars represent standard deviation from 3 replicates.
The compounds shown in FIGS. 14A-14B were synthesised to improve cell permeability. […] FIG. 16 compares the round II compounds (shown in FIGS. 14A-14B) with UBP036 in this assay. […] Inhibition of βTrCP, which is responsible for the degradation of both PDCD4 and β-catenin, causes a concomitant stabilisation and accumulation of levels of these proteins which can be measured by in cell western assay.

βTrCP [1] = target: βTrCP (Homo sapiens, UniProt Q9Y297); assay: Fluorescence polarisation (FP) binding assay with fluorescein-tagged IκB peptide; conditions: Table 11, with spread; read-out: FP IC50/μM
Target sequence in this assay (P63208 whole entry partner, one chain of several): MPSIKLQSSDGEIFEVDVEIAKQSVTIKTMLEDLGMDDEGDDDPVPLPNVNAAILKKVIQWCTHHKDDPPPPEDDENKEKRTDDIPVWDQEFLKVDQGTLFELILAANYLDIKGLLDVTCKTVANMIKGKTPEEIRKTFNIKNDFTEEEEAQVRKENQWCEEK

βTrCP/Skp1 = βTrCP/Skp1 (Homo sapiens, UniProt Q9Y297); assay: Surface plasmon resonance (SPR), Biacore T200; assay type: binding; conditions: apparent KD averaged over both surfaces
βTrCP/Skp1, sequence (P63208 whole entry partner, one chain of several): as above
Description: Surface Plasmon Resonance (SPR)
Experiments were carried out using the Biacore T200 SPR detection system. This system exploits the phenomenon of surface plasmon resonance (SPR) to monitor interactions between molecules. The system involves the attachment of one interacting partner to a surface (an appropriate sensor chip) while the other interacting partner is passed over it in solution. The binding of molecules to the surface generates an SPR response (measured in response units (RU)) that is proportional to the mass and amount of the biomolecule (in this case βTrCP/Skp1) bound to the chip. The relative responses obtained are dependent on the concentration of the molecule binding. At RUmaximum, the attached protein's binding sites are saturated. Binding events can be followed in real time and a range of interaction characteristics can be determined including kinetics, specificity of interactions and the concentration of specific molecules in a sample.
As βTrCP was His tagged, an NTA sensor chip was used. This sensor chip has a dextran surface matrix with immobilized nitrilotriacetic acid (NTA) which provides a means of capturing polyHis-tagged proteins through Nickel chelation. It was hoped that addition of Ni^+ would orient the protein in a specific (and hopefully active) manner as it is covalently immobilised via amine coupling. Addition of EDC:NHS (N-ethyl-N′-(3-[…])-carbodiimide:N-hydroxysuccinimide) converts carboxyl groups on the dextran sensor chip surface to succinamide esters which readily form covalent bonds with primary amines. Each chip contains four flow cells (each a separate surface) which means that compounds/peptides can be passed over different forms of βTrCP and a reference surface simultaneously. If binding to βTrCP is occurring, responses should be the same (accounting for differences in density of surface etc) on each surface.
Two different βTrCP protein complexes were immobilised on to an NTA biacore sensor chip. One included the GSTSkp1 fusion (HisβTrCP/GSTSkp1) while the other was immobilised after GST Removal by Thrombin (HisβTrCP/Skp1). To ensure that the GST moiety is completely removed from Skp1, βTrCP/GSTSkp1 was incubated with thrombin ((10units/mg protein) for at least 16 hours at room temperature in 10mMHEPES 150mMNaCl pH7.4+2 mM CaCl2. Thrombin and GST were removed from βTrCP/Skp1 by buffer exchange through a 50 KDa MWCO vivaspin concentrator.
Protein Immobilisation Procedure for NTA Chip
Ni+ (500 μM NiCl) loaded on to surface at a flow rate of 5 μl/min for 60s. EDC/NHS (activates dextran carboxylates) loaded at a flow rate of 5 μl/min for 240s. Protein ([protein]=100 nM to 1 μM) loaded at a flow rate of 10 μl/min for 180s. Strip solution (350 μM EDTA/1M NaCl) added at flow rate of 10 μl/min for 30s (to chelate excess Ni+ and remove non-covalently bound protein e.g. protein oligomers). Quench solution (ethanolamine) at flow rate of 5 μl/min for 240s (to deactivate surface molecules on the chip that have not crosslinked protein). The immobilisation buffer used was 10 mM HEPES pH 7.4, 150 mM NaCl,
GST Capture Procedure (for Immobilisation Via GSTSkp1)
EDC:NHS was injected at 5 μl/min for 4 min to activate surface for amine coupling (this converts carboxyl groups on the surface of the chip to succinamide esters that react with primary amines)
Anti-GST (60 μg/ml). was loaded at 10 μl/min for 4 min resulting in an increase in response units of 6730 (Biacore manual states it should result in ˜7000)
Ethanolamine was injected at 5 μl/min for 5 min to deactivate remaining unreacted esters at surface (quenching).
Injection of a low concentration of purified GST (from kit) was injected for 3 mins at 5 μl/min before running a regeneration cycle with glycine pH2.0 that disrupts the antibody-GST interaction. […]

βTrCP [2] = target: T1, βTrCP (Homo sapiens, UniProt Q9Y297); assay: Biotin pull down assay with biotinylated IκB peptide; assay type: binding
T1 sequence (Q9Y297 1-605): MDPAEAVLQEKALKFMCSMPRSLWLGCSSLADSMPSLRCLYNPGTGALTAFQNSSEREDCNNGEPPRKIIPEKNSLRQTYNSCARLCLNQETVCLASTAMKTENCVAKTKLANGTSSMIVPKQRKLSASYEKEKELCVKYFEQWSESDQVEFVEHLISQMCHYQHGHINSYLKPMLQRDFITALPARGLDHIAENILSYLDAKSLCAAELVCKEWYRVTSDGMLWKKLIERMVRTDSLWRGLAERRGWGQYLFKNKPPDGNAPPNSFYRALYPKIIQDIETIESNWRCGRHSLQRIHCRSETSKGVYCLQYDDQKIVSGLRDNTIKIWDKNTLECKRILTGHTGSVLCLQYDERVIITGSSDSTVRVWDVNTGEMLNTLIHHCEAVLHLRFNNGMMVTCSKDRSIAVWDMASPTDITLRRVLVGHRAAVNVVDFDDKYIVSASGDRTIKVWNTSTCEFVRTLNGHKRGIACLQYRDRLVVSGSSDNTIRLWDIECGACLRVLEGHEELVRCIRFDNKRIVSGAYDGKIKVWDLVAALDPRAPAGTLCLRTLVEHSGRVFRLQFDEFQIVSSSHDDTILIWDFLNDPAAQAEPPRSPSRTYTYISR

β-TrCP1/Skp1 = β-TrCP1/Skp1 (Homo sapiens, UniProt Q9Y297); assay: βTrCP ubiquitination assay (Ub assay); assay type: biochemical
β-TrCP1/Skp1, sequence (P63208 2-163 partner limits assumed, one chain of several): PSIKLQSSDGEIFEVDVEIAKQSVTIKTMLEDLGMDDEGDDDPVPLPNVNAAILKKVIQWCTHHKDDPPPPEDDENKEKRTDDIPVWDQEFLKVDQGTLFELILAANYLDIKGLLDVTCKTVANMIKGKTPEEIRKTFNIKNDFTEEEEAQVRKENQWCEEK
How it was run: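 Compounds tested in duplicate at 10 and 100 μM in βTrCP(IκBα) and βTrCP(β-catenin) cascades with UBE1 E1, UbcH3 E2 and biotinylated ubiquitin; substrate phosphorylation done without compound, ubiquitination steps with compound. Product captured on anti-c-Myc plates and detected with SA-Ru TAG by MSD electrochemiluminescence.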

Skp2 = Skp2 (Homo sapiens, UniProt Q13309); assay: Selectivity assay vs other E3s: Skp2; assay type: biochemical
Skp2, sequence (Q13309 whole entry, species assumed): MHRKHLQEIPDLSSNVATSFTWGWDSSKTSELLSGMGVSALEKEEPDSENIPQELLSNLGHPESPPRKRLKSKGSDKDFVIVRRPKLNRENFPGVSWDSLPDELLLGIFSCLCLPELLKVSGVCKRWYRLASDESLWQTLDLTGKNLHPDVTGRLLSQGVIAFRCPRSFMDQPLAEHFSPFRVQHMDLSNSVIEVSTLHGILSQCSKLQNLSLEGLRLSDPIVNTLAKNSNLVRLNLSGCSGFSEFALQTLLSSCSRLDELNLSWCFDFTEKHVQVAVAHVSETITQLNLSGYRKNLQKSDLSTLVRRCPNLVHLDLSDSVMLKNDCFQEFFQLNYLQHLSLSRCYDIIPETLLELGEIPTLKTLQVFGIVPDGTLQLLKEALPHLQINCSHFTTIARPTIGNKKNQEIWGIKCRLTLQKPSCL
Skp2, sequence (P63208 whole entry partner, species assumed): as the sequence (P63208 whole entry partner, one chain of several) above
Skp2, sequence (Q13616 whole entry partner, species assumed): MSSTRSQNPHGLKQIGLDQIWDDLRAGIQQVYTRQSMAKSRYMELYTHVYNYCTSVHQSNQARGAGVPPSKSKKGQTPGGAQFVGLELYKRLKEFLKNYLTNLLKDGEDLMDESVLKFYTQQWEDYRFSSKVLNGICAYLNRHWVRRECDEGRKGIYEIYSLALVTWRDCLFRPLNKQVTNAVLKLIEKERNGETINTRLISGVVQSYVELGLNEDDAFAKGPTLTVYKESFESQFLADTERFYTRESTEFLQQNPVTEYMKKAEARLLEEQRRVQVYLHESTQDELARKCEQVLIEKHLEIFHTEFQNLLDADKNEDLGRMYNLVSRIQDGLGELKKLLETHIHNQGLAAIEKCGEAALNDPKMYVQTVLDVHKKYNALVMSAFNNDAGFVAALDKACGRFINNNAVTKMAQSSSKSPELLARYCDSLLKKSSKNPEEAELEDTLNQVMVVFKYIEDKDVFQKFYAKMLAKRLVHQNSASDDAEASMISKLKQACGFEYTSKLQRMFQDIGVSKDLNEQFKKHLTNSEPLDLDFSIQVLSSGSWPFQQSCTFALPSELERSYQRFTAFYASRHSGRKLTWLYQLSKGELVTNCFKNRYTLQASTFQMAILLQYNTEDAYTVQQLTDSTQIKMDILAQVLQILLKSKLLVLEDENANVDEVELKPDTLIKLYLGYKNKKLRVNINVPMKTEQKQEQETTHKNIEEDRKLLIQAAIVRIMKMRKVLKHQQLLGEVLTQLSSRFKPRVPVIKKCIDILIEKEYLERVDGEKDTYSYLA
Skp2, sequence (P62877 whole entry partner, species assumed): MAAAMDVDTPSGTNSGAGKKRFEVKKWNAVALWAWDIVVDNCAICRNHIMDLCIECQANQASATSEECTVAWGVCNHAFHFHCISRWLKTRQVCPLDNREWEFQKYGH
How it was run: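 Skp2 ubiquitination was measured in master mixes of 50 mM Herpes buffer, pH 7.5, with 75 mM NaCl and 1 mM DTT, lacking Mg or ATP. Test compounds were preincubated for 30 minutes at room temperature, Mg/ATP was added for a further 60 minutes, and reactions were boiled in SDS loading buffer, resolved on 10% SDS-PAGE, blotted to nitrocellulose and probed with HRP-Streptavidin.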

FBW7/Skp1 = FBW7/Skp1 (Homo sapiens, UniProt Q969H0); assay: Selectivity assay vs other E3s: Fbw7; assay type: biochemical
FBW7/Skp1, sequence (Q969H0 whole entry, species assumed): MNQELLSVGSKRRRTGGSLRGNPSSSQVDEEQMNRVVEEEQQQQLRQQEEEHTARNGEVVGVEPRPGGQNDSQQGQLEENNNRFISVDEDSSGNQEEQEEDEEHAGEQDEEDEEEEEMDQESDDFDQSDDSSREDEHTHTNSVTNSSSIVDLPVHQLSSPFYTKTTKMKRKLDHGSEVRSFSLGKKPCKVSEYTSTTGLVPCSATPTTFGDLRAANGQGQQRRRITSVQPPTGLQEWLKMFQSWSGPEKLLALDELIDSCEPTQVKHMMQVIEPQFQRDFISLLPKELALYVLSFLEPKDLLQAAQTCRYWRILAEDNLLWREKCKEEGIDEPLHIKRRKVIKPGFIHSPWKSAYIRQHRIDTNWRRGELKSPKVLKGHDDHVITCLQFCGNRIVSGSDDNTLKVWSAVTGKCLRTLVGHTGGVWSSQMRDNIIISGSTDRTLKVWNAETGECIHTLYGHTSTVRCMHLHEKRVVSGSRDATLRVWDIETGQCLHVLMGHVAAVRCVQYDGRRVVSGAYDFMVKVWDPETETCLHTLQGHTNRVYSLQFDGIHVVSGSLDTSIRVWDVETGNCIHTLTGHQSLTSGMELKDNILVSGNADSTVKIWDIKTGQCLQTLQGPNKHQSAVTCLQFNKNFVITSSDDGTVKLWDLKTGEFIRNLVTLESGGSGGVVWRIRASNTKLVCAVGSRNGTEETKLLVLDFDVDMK
FBW7/Skp1, sequence (P63208 whole entry partner, species assumed): as the sequence (P63208 whole entry partner, one chain of several) above
FBW7/Skp1, sequence (Q13616 whole entry partner, species assumed): as the sequence (Q13616 whole entry partner, species assumed) above
FBW7/Skp1, sequence (P62877 whole entry partner, species assumed): as the sequence (P62877 whole entry partner, species assumed) above
How it was run: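 FBW7/Skp1 E3 ubiquitination of cyclin E substrate in 50 mM HEPES pH 7.5, 75 mM NaCl, 1 mM DTT; preincubated 30 min at room temperature before Mg/ATP, then 60 min more. Products resolved by 10% SDS-PAGE and immunoblotted with anti-cyclin E.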

## COc1ccc(S(=O)(=O)N[C@H](CC(=O)O)C(=O)N[C@@H](CCC(=O)O)C(=O)NCC(=O)N[C@@H](Cc2cccc(F)c2)C(=O)N[C@@H](Cc2c[nH]c3ccccc23)C(=O)N[C@@H](CCC(=O)O)C(N)=O)cc1 [UBP022, 4-(MeO)-PhSO2-dEGF(3F)WE-NH2] ({Benzenesulfonyl(4-OMe)}-[dD]EG[Phe(3-F)]WE-NH2)
PDCD4 in MCF7 cells
  cell based activity: display cell based activity

## CCOC(=O)N[C@H](CC(=O)O)C(=O)N[C@@H](CCC(=O)O)C(=O)NCC(=O)N[C@@H](Cc1cccc(F)c1)C(=O)N[C@@H](Cc1c[nH]c2ccccc12)C(=O)N[C@@H](CCC(=O)O)C(N)=O [UBP023, EtO(CO)-dEGF(3F)WE-NH2] (Ethoxycarbonyl-[dD]EG[Phe(3-F)]WE-NH2)
βTrCP [1]
  IC50: 0.045 ± 0.005 µM
βTrCP/Skp1
  Kd: 0.034 ± 0.017 µM
βTrCP [2]; 10 μM compound
  Biotin Pulldown Assay 10 μM: reduces/
βTrCP [2]; 100 μM compound
  Biotin Pulldown Assay 100 μM: inhibits
β-TrCP1/Skp1; 10 μM compound
  Ub Assay 10 μM: inhibits/
β-TrCP1/Skp1; 100 μM compound
  Ub Assay 100 μM: inhibits
Skp2; 100 μM, value in brackets, read-out: % Inhibition Skp2 @ (100 μM)
  inhibition at 100 µM: 4%
Skp2; read-out: % Inhibition Skp2 @ 10 μM
  inhibition at 10 µM: 4%
FBW7/Skp1; 100 μM, value in brackets, read-out: % Inhibition Fbw7 @ (100 μM)
  inhibition at 100 µM: 12%
FBW7/Skp1; read-out: % Inhibition Fbw7 @ 10 μM
  inhibition at 10 µM: 0%

## NC(=O)[C@H](CCCCNC(=O)c1ccc2ccccc2c1)NC(=O)CCCCCNC(=O)[C@H](CCC(=O)O)NC(=O)[C@H](Cc1c[nH]c2ccccc12)NC(=O)[C@H](Cc1cccc(F)c1)NC(=O)CNC(=O)[C@H](CCC(=O)O)NC(=O)[C@@H](CC(=O)O)NS(=O)(=O)c1ccc(Br)cc1 [UBP090, 4-(Br)PhSO2-dEGF(3F)WE-Ahx-K(NHCO(2-Naphth))-NH2] (Brosyl-[dD]EG[Phe(3-F)]WE[Ahx]K(2Naphthoyl)-NH2)
PDCD4 in MCF7 cells
  cell based activity: display cell based activity
